Laboratory results: US7727952B2, “Methods for treating spinal and bulbar muscular atrophy using LHRH analogs” (priority 2002, dated 2010)
“Also recorded” adds a separate entry of the source.

Legend:
male AR-97Q mice = experiment: Administration of Leuprorelin to male AR-97Q mice: symptoms (body weight, rotarod task, cage activity, survival rate, body size, foot prints); type: in vivo, mouse
Method: We analyzed rotarod task of mice by an Economex Rotarod (Colombus Instruments, USA) weekly during the light phase of the 12 h light/12 h dark cycle as described previously (Adachi et al., 2001). We performed three trials, and recorded the longest duration on the rod for every mouse. We stopped the timer when the mouse fell from the rod or after an arbitrary limit of 180 seconds. We measured cage activity while each mouse was in a transparent acrylic cage (16×30×14 cm). We used an AB system (Neuroscience, Japan) with an infrared ray sensor monitor to measure spontaneous motor activity. We automatically totaled and recorded all measurements for 24 hours per week at 10-min intervals. […] Leuprorelin was administrated as follows. 100 μg of Leuprorelin acetate was suspended in a solution containing D-mannitol, which was subcutaneously injected to the mice every two weeks from five weeks of age until the end of the analysis. To the control group, only suspension was administrated. […] That is to say, motor impairment assessed by rotarod and cage activity was far milder in the Leuprorelin-administrated male AR-97Q mice as compared with the control group, and motor dysfunction was hardly shown in the Leuprorelin-administrated group (FIGS. 5A, B, C and D).

[1] = Serum testosterone radioimmunoassay in Leuprorelin-administered male AR-97Q mice; type: in vivo, mouse; settings: #4-6, n=4
Method: Leuprorelin was administrated as follows. 100 μg of Leuprorelin acetate was suspended in a solution containing D-mannitol, which was subcutaneously injected to the mice every two weeks from five weeks of age until the end of the analysis. To the control group, only suspension was administrated. […] That is to say, motor impairment assessed by rotarod and cage activity was far milder in the Leuprorelin-administrated male AR-97Q mice as compared with the control group, and motor dysfunction was hardly shown in the Leuprorelin-administrated group (FIGS. 5A, B, C and D).

[2] = The Leuproride Study Group 1984; cited from earlier work
[3] = Serum testosterone radioimmunoassay in testosterone-administered female AR-97Q mice; type: in vivo, mouse; settings: testosterone-administered female 97Q mice, control mice undetectable low level
female AR-97Q mice = experiment: Administration of testosterone to female AR-97Q mice: symptoms (body weight, rotarod task, cage activity, survival rate, body size, foot prints); type: in vivo, mouse
Method: We analyzed rotarod task of mice by an Economex Rotarod (Colombus Instruments, USA) weekly during the light phase of the 12 h light/12 h dark cycle as described previously (Adachi et al., 2001). We performed three trials, and recorded the longest duration on the rod for every mouse. We stopped the timer when the mouse fell from the rod or after an arbitrary limit of 180 seconds.
We measured cage activity while each mouse was in a transparent acrylic cage (16×30×14 cm). We used an AB system (Neuroscience, Japan) with an infrared ray sensor monitor to measure spontaneous motor activity. We automatically totaled and recorded all measurements for 24 hours per week at 10-min intervals.
Male AR-97Q mice and their normal littermates were castrated or sham-operated via the abdominal route under ketamine-xylazine anesthesia (50 mg/kg ketamine and 10 mg/kg xylazine, i.p.) at 4 weeks of age. […] The control mice were given the same amount of sesame oil.

With `CCNC(=O)[C@@H]1CCCN1C(=O)[C@H](CCCNC(=N)N)NC(=O)[C@H](CC(C)C)NC(=O)[C@@H](CC(C)C)NC(=O)[C@H](Cc1ccc(O)cc1)NC(=O)[C@H](CO)NC(=O)[C@H](Cc1c[nH]c2ccccc12)NC(=O)[C@H](Cc1c[nH]cn1)NC(=O)[C@@H]1CCC(=O)N1` [Leuprorelin] the rotarod task (male AR-97Q mice; FIG. 5B, #7-8, Leuprorelin-administered group vs control (vehicle) group, n=6) was “significant difference”, the cage activity (male AR-97Q mice; FIG. 5C, #7-8, Leuprorelin-administered group vs control (vehicle) group, n=6) was “significant difference” and the body size (male AR-97Q mice; FIG. 5E, #4-6, 12-week-old, control group showed severe muscular atrophy) was “normal”. For the same compound, the symptoms (male AR-97Q mice; male AR-97Q mice, 100 μg Leuprorelin acetate s.c. every two weeks from five weeks of age, vs control group (suspension only)) was “remarkable improvement”, the motor dysfunction (male AR-97Q mice; male AR-97Q mice, 100 μg s.c. every two weeks) was “hardly shown” and the “motor impairment assessed by rotarod and cage activity” value (male AR-97Q mice; male AR-97Q mice, 100 μg s.c. every two weeks, compared with the control group) was “far milder”. For the same compound, the “reduction in body size” value (male AR-97Q mice; male AR-97Q mice, FIG. 5E, #4-6, 12-week-old) was “remarkably improved”, the “motor weakness (foot prints)” value (male AR-97Q mice; male AR-97Q mice, FIG. 5F, #4-6, 12-week-old) was “improved” and the serum testosterone value [1] was “undetectable low level”. For the same compound, the “effect of inhibiting the secretion of testosterone, relative to castration” value [2] was “same level”.

For `CCCCCCC(=O)O[C@H]1CC[C@H]2[C@@H]3CCC4=CC(=O)CC[C@]4(C)[C@H]3CC[C@]12C` [testosterone, testosterone enanthate], the serum testosterone levels ([3]; line #2-6, n=3) was 158.0 ± 70.7 ng/dL, the serum testosterone levels ([3]; line #7-8, n=4) was 305.3 ± 182.3 ng/dL and the body weight (female AR-97Q mice; FIG. 6A, #7-8, testosterone-administered group vs testosterone-administered normal mice or control (oil) group, p<0.0001) was “significant difference”. For the same compound, the rotarod task (female AR-97Q mice; FIG. 6B, #7-8, testosterone-administered group vs testosterone-administered normal mice or control (oil) group, p<0.0001) was “significant difference”, the cage activity (female AR-97Q mice; FIG. 6C, #2-6, testosterone-administered group vs testosterone-administered normal mice or control (oil) group, p<0.0001) was “significant difference” and the survival rate (female AR-97Q mice; FIG. 6D, #7-8, testosterone-administered group vs testosterone-administered normal mice or control (oil) group, p<0.0001) was “significant difference”. The “symptoms, pathologic findings and nuclear localization of the mutant protein” value (female AR-97Q mice; female AR-97Q mice, 20 μg testosterone enanthate s.c. weekly from 4 weeks of age, vs sesame-oil control group) was “drastically exacerbated”, the weight loss (female AR-97Q mice; female AR-97Q mice, FIG. 6A, control group hardly showed weight loss) was “significant weight loss” and the life-span (female AR-97Q mice; female AR-97Q mice, FIG. 6D) was “affected”. The “muscle atrophy and body size” value (female AR-97Q mice; female AR-97Q mice, FIG. 6E, #2-6, 14-week-old) was “marked muscle atrophy and reduction in body size; also recorded: severe muscular atrophy”, the foot print analysis (female AR-97Q mice; female AR-97Q mice, FIG. 6F, not detected in sesame oil-administered mice) was “exhibited motor weakness and dragged their hind legs” and the “motor impairment assessed by rotarod and cage activity” value (female AR-97Q mice; female AR-97Q mice, compared with control mice, FIGS. 6B and C) was “significantly worsened”.
